The source of these data is patent publication US11214578B2, “Urea/carbamates FAAH MAGL or dual FAAH/MAGL inhibitors and uses thereof” (Northeastern University, priority 2014, dated 2022).

Structures are written as SMILES. Where two headings read alike, the source gives them in different places.

A word on the IC50: it is the concentration at which inhibition is half-maximal.

What all share (format): biochemical
For one assay, the target named is T1, Human FAAH (MBPΔTMhFAAH) (Homo sapiens, UniProt O00519).
T1 construct: made in house; host or cells: E. coli (pMALcE4 vector)
T1 sequence (O00519 30-579 limits assumed): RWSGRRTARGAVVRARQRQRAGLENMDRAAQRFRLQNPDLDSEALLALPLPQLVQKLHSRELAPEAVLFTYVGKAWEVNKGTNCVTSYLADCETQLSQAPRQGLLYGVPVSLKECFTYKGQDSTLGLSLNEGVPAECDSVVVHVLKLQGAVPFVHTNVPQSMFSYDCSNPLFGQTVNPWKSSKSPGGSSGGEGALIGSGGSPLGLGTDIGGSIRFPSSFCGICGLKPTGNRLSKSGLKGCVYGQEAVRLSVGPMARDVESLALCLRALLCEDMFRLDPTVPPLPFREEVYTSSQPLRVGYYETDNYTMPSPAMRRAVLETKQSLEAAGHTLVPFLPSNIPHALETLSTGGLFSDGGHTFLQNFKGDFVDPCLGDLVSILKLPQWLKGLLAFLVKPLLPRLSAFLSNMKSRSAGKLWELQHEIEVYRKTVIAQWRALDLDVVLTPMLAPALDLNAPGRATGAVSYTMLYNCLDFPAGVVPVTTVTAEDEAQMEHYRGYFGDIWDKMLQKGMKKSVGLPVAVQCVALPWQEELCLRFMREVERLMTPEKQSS
Briefly: Fluorescent assay protocol for hFAAH. Particulars: human FAAH (MBP fusion, ΔTM), procedure as for rFAAH. As for the experimental part:
Human FAAH without putative transmembrane domain following maltose binding protein was expressed in E. coli cells using pMALcE4 vector Alapafuja et al J. Med. Chem. (2012) 55: 10074-89.
Procedure was followed as described for hMAGL, except that arachidonoyl-methyl coumarin amide (AAMCA) was used as fluorigenic substrate. Compounds were diluted in 50:50 DMSO/assay buffer (50 mM HEPES, 1 mM EDTA, 0.1% BSA, pH 7.4) so as to have a final DMSO concentration below 8% in each reaction. For the screening assay, 3 concentrations (1 μM, 10 μM, and 100 μM) of test compounds, 15 μg of ΔTM rFAAH and assay buffer were pre-incubated for 15 min at 25° C. AAMCA (20 μM, 2×Km) was added prior to incubation at 25° C. and kinetic fluorescence reading every 20 minutes (λex=360/λem=460) for 4 hours on a BioTek Synergy HT Microplate Reader (BioTek Instruments, Winooski, Vt.). The fluorescence reading at the 3 hour time point (linear enzyme kinetics) was used to calculate percent inhibition based on control assays without inhibitor present. All FAAH assays were performed in triplicate for each inhibitor concentration, and IC50 values determined using Prizm software (GraphPad Software, Inc.).
Procedure was followed as described for rFAAH.

The target of another assay is T2, Rat MAGL (rMAGL) (Rattus norvegicus, UniProt Q8R431).
T2 construct: made in house; host or cells: E. coli
T2 sequence (Q8R431 1-303): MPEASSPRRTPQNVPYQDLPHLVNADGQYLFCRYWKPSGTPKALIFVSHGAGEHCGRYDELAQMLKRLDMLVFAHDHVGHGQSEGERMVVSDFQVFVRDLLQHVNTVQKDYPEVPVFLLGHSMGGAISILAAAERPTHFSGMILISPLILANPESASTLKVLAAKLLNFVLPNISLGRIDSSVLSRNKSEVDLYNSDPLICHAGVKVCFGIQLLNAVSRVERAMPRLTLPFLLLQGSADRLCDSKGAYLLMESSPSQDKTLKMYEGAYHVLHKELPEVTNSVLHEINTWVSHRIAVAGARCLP
As to the kind of experiment: Fluorescent assay protocol for rMAGL. How it is done:
(§1) This medium throughput assay involved a 96-well plate format in which hMAGL activity was monitored by the hydrolysis of the substrate 7-hydroxy-6-methoxy-4-methylcoumarin ester (AHMMCE) to form the fluorescent product, coumarin. […] Upon the addition of AHMMCE, the reaction was incubated at 25° C. for 120 min; fluorescence readings were taken every 15 min at 360 nm/460 nm (λexcitation/λemission) using a Synergy HT Plate Reader (Bio-Tek, Winooski, Vt.). […] External standards were used to convert relative fluorescence units to the amount of 4-methylcoumarin formed. All MAGL assays were performed in triplicate for each inhibitor concentration, and IC50 values were calculated using Prizm software (GraphPad Software, Inc., San Diego, Calif.).
Procedure was followed as described for hMAGL.

A further assay concerns the target T3, Human MAGL (hMAGL) (Homo sapiens, UniProt Q99685).
T3 construct: hexahistidine; made in house; host or cells: E. coli
T3 sequence (Q99685 1-303): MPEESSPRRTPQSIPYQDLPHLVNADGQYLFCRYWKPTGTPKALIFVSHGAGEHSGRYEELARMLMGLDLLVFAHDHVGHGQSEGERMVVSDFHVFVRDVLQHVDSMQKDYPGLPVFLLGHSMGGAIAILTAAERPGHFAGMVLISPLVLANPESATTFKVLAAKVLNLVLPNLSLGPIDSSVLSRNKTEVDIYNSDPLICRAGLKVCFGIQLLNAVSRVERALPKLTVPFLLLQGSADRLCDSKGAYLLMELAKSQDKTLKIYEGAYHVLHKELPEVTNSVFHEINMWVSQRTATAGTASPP
As to the kind of experiment: Fluorescent assay protocol for hMAGL (AHMMCE substrate). How it is done:
as §1

In another assay the target is T4, ΔTM rat FAAH (Rattus norvegicus, UniProt P97612).
T4 construct: Preparation of Transmembrane Domain-Deleted Rat FAAH (ΔTM rFAAH); made in house; host or cells: E. coli
T4 sequence (P97612 30-579 limits assumed): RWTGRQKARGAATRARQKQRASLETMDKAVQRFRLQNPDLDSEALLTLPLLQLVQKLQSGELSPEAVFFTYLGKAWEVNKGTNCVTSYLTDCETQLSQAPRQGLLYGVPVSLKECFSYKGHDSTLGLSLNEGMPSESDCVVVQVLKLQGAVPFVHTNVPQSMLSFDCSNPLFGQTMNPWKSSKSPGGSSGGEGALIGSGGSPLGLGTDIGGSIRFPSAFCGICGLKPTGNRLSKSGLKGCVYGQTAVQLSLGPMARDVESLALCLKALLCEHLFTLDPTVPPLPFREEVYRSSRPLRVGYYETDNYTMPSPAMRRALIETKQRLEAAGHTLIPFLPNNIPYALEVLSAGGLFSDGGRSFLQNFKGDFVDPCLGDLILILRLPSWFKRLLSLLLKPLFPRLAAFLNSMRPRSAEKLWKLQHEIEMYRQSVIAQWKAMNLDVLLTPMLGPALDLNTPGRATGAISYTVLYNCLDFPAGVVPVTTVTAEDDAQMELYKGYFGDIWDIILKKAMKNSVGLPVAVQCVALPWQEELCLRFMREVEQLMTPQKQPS
Briefly: Fluorescent assay protocol for ΔTM rat FAAH (AAMCA substrate). The conditions noted are these: 15 min preincubation, read-out: IC50 rFAAH. As for the experimental part: Procedure was followed as described for hMAGL, except that arachidonoyl-methyl coumarin amide (AAMCA) was used as fluorigenic substrate. […] For the screening assay, 3 concentrations (1 μM, 10 μM, and 100 μM) of test compounds, 15 μg of ΔTM rFAAH and assay buffer were pre-incubated for 15 min at 25° C. […] The fluorescence reading at the 3 hour time point (linear enzyme kinetics) was used to calculate percent inhibition based on control assays without inhibitor present. All FAAH assays were performed in triplicate for each inhibitor concentration, and IC50 values determined using Prizm software (GraphPad Software, Inc.).

The mark [1] stands for this setting: recombinant rat MAGL, procedure as for hMAGL, read-out: IC50 rMAGL.
Where [2] appears, read: recombinant human MAGL, AHMMCE substrate, 15 min preincubation, read-out: IC50 hMAGL.

On to `COC(=O)c1ncn(C(=O)N2CCC(OC(c3ccc(F)cc3)c3ccc(F)cc3)CC2)n1` [Example 33, (3-(Carbomethoxy)-1H-1,2,4-triazol-1-yl)(4-(bis(4-fluorophenyl)methyoxy)pipe-ridin-1 yl)methanone], for which the IC50 on Human FAAH (MBPΔTMhFAAH), at Rat MAGL (rMAGL) (setting [1]), at Human MAGL (hMAGL) (setting [2]) and on ΔTM rat FAAH was above 1000 nM in each case.

As for `COc1ccc(C#N)cc1OC(=O)N1CCC(S(=O)(=O)c2ccc(Br)cc2)CC1` [Example 62, 5-Cyano-2-methoxyyphenyl 4-(4-bromophenylsulfonyl)piperidine-1-carboxylate], the IC50 at Human FAAH (MBPΔTMhFAAH) was 10 to 100 nM; at Rat MAGL (rMAGL) (setting [1]), 10 to 100 nM; on Human MAGL (hMAGL) (setting [2]), above 1000 nM; at ΔTM rat FAAH, 10 to 100 nM.

For the compound `N#Cc1cccc(-c2cccc(NC(=O)N3CCN(Cc4cccc(-c5ccccc5)c4)CC3)c2)c1` [Example 17, 4-([1,1′-biphenyl]-3-ylmethyl)-N-(3′-cyano-[1,1′-biphenyl]-3-yl)piperazine-1-carboxamide], the IC50 on Human FAAH (MBPΔTMhFAAH) was 10 to 100 nM; on Rat MAGL (rMAGL) (setting [1]) it was above 1000 nM; on Human MAGL (hMAGL) (setting [2]) it was above 1000 nM; at ΔTM rat FAAH it was 10 to 100 nM.

`O=C(N1CCN(C(c2ccc(F)cc2)c2ccc(F)cc2)CC1)n1cnc(-c2ccccc2)c1` [Example 29, (4-(bis(4-fluorophenyl)methyl)piperazin-1-yl)(4-phenyl-1H-imidazol-1-yl)methanone]: the IC50 at Human FAAH (MBPΔTMhFAAH) is 110 to 1000 nM; on Rat MAGL (rMAGL) (setting [1]) it was above 1000 nM; on Human MAGL (hMAGL) (setting [2]) it was above 1000 nM; on ΔTM rat FAAH, 110 to 1000 nM.

Consider `Cc1ccc(S(=O)(=O)N2CCN(C(=O)Oc3c(F)cccc3F)CC2)cc1` [Example 65, 2,6-difluorophenyl 4-tosylpiperazine-1-carboxylate], for which the IC50 at Human FAAH (MBPΔTMhFAAH) was above 1000 nM; on Rat MAGL (rMAGL) (setting [1]), 110 to 1000 nM; at Human MAGL (hMAGL) (setting [2]), 110 to 1000 nM; on ΔTM rat FAAH it was above 1000 nM.

With `O=C(Oc1ccc(Cl)cc1Cl)N1CC(OCc2ccc(Cl)cc2)C1` [Example 79, 2,4-Dichlorophenyl 3-(4-chlorobenzyloxy)azetidine-1-carboxylate], the IC50 fell in the range of 10 to 100 nM on Human FAAH (MBPΔTMhFAAH), 110 to 1000 nM at Rat MAGL (rMAGL), 110 to 1000 nM on Human MAGL (hMAGL) and 10 to 100 nM at ΔTM rat FAAH.

With `Cc1ccc(N2CCN(C(=O)n3cnc(-c4ccccc4)c3)CC2C)cc1` (stereo not shown) [Example 25, (3-methyl-4-(p-tolyl)piperazin-1-yl)(4-phenyl-1H-imidazol-1-yl)methanone], the IC50 is 10 to 100 nM at Human FAAH (MBPΔTMhFAAH), above 1000 nM at Rat MAGL (rMAGL) (setting [1]), above 1000 nM at Human MAGL (hMAGL) (setting [2]) and 10 to 100 nM on ΔTM rat FAAH.

Take `C[C@H]1CN(Cc2cccc(Oc3ccccc3)c2)CCN1C(=O)Nc1cncc(-c2cccc(C#N)c2)c1` [Example 5, (S)—N-(5-(3-cyanophenyl)pyridin-3-yl)-2-methyl-4-(3-phenoxybenzyl)piperazine-1-carboxamide]: the IC50 at Human FAAH (MBPΔTMhFAAH), on Rat MAGL (rMAGL) (setting [1]), on Human MAGL (hMAGL) (setting [2]) and on ΔTM rat FAAH was above 1000 nM each time.

For `CC1CN(C(=O)n2cnc(-c3ccccc3)c2)CCN1c1cccc(O)c1` (stereo not shown) [Example 27, (4-(3-hydroxyphenyl)-3-methylpiperazin-1-yl)(4-phenyl-1H-imidazol-1-yl)methanone], the IC50 on Human FAAH (MBPΔTMhFAAH) is 110 to 1000 nM; at Rat MAGL (rMAGL) (setting [1]), above 1000 nM; at Human MAGL (hMAGL) (setting [2]) it was above 1000 nM; at ΔTM rat FAAH it was 110 to 1000 nM.

For `O=C(Oc1cccc(N2CCS(=O)(=O)CC2)c1)N1CCN(Cc2cccc(Oc3ccccc3)c2)CC1` [Example 71, 3-(1,1-dioxidothiomorpholino)phenyl 4-(3-phenoxybenzyl)piperazine-1-carboxylate], the IC50 on Human FAAH (MBPΔTMhFAAH) fell in the range of 110 to 1000 nM; at Rat MAGL (rMAGL) (setting [1]) it was 10 to 100 nM; on Human MAGL (hMAGL) (setting [2]), 10 to 100 nM; on ΔTM rat FAAH it was 110 to 1000 nM.

Turning to `NC(=O)c1cccc(-c2cccc(NC(=O)N3CCN(Cc4ccc(-c5ccccc5)cc4)CC3)c2)c1` [Example 10, 4-([1,1′-biphenyl]-4-ylmethyl)-N-(3′-carbamoyl-[1,1′-biphenyl]-3-yl)piperazine-1-carboxamide], the IC50 at Human FAAH (MBPΔTMhFAAH) is 10 to 100 nM; on Rat MAGL (rMAGL) (setting [1]) it was above 1000 nM; at Human MAGL (hMAGL) (setting [2]) it was above 1000 nM; at ΔTM rat FAAH, 10 to 100 nM.

Take `O=C(Oc1cccc(Cl)n1)N1CCC(OC(c2ccccc2)c2ccccc2)CC1` [Example 57, 6-chloropyridin-2-yl 4-(benzhydryloxy)piperidine-1-carboxylate]: the IC50 at Human FAAH (MBPΔTMhFAAH) is above 1000 nM; at Rat MAGL (rMAGL) (setting [1]), 10 to 100 nM; on Human MAGL (hMAGL) (setting [2]), 10 to 100 nM; on ΔTM rat FAAH, above 1000 nM.

As for `N#Cc1cccc(-c2cccc(NC(=O)N3CCN(Cc4ccc5ccccc5n4)CC3)c2)c1` [Example 13, N-(3′-cyano-[1,1′-biphenyl]-3-yl)-4-(quinolin-2-ylmethyl)piperazine-1-carboxamide], the IC50 at Human FAAH (MBPΔTMhFAAH) is 10 to 100 nM; on Rat MAGL (rMAGL) (setting [1]) it was above 1000 nM; at Human MAGL (hMAGL) (setting [2]), above 1000 nM; at ΔTM rat FAAH, 10 to 100 nM.
